Source: ChEMBL document CHEMBL5244230, “Artemisinin-derived hybrids and their anticancer activity” (Eur J Med Chem, 2020)

System: HT-29
Assay: Antiproliferative activity against human HT-29 cells assessed as reduction in cell viability
Type: functional, cell-based
Settings: not given

Row | Structure (SMILES) | IC50 [nM]
1 | C[C@H]1[C@H](OCCOc2cccc(/C=C/S(=O)(=O)Nc3ccc(OC(F)(F)F)cc3)c2)O[C@@H]2O[C@@]3(C)CC[C@H]4[C@H](C)CC[C@@H]1[C@@]24OO3 | 50
2 | CCOC(=O)c1cc2cccc(OCc3cn(CCCO[C@@H]4O[C@@H]5O[C@@]6(C)CC[C@H]7[C@H](C)CC[C@@H]([C@H]4C)[C@@]57OO6)nn3)c2oc1=O | 430
3 | Cc1c(C)c2cccc(OCc3cn(CCCO[C@@H]4O[C@@H]5O[C@@]6(C)CC[C@H]7[C@H](C)CC[C@@H]([C@H]4C)[C@@]57OO6)nn3)c2oc1=O | 430
4 | Cc1c(C)c2cccc(OCc3cn(CCO[C@@H]4O[C@@H]5O[C@@]6(C)CC[C@H]7[C@H](C)CC[C@@H]([C@H]4C)[C@@]57OO6)nn3)c2oc1=O | 430
5 | Cc1ccc(F)c(NS(=O)(=O)/C=C/c2ccc(OCc3ccc(C(=O)NCCO[C@@H]4O[C@@H]5O[C@@]6(C)CC[C@H]7[C@H](C)CC[C@@H]([C@H]4C)[C@@]57OO6)cc3)cc2)c1 | 90
6 | C[C@H]1[C@H](OCCOc2cccc(/C=C/S(=O)(=O)Nc3c(Cl)cccc3Cl)c2)O[C@@H]2O[C@@]3(C)CC[C@H]4[C@H](C)CC[C@@H]1[C@@]24OO3 | 50
7 | C[C@H]1[C@H](OCCOc2cccc(/C=C/S(=O)(=O)Nc3ccccc3Cl)c2)O[C@@H]2O[C@@]3(C)CC[C@H]4[C@H](C)CC[C@@H]1[C@@]24OO3 | 50
8 | Cc1cc(=O)oc2c(OCc3cn(CCO[C@@H]4O[C@@H]5O[C@@]6(C)CC[C@H]7[C@H](C)CC[C@@H]([C@H]4C)[C@@]57OO6)nn3)cccc12 | 430
9 | Cc1c(Cl)c(=O)oc2c(OCc3cn(CCO[C@@H]4O[C@@H]5O[C@@]6(C)CC[C@H]7[C@H](C)CC[C@@H]([C@H]4C)[C@@]57OO6)nn3)cccc12 | 430
10 | Cc1cc(=O)oc2c(OCc3cn(CCCO[C@@H]4O[C@@H]5O[C@@]6(C)CC[C@H]7[C@H](C)CC[C@@H]([C@H]4C)[C@@]57OO6)nn3)cccc12 | 430
11 | Cc1ccc(F)c(NS(=O)(=O)/C=C/c2cccc(OCCOC3O[C@@H]4O[C@@]5(C)CC[C@H]6[C@H](C)CC[C@@H]([C@H]3C)[C@@]46OO5)c2)c1 (stereo partly drawn) | 50
12 | C[C@H]1[C@H](OCCn2cc(COc3cccc4c(C(F)(F)F)cc(=O)oc34)nn2)O[C@@H]2O[C@@]3(C)CC[C@H]4[C@H](C)CC[C@@H]1[C@@]24OO3 | 430

System: MDA-MB-231
Assay: Antiproliferative activity against human MDA-MB-231 cells
Type: functional, cell-based
Settings: Homo sapiens, MDA-MB-231

Row | Structure (SMILES) | IC50 [nM]
13 | C[C@H]1[C@H](OCCOc2cccc(/C=C/S(=O)(=O)Nc3ccc(OC(F)(F)F)cc3)c2)O[C@@H]2O[C@@]3(C)CC[C@H]4[C@H](C)CC[C@@H]1[C@@]24OO3 | 50
14 | Cc1ccc(F)c(NS(=O)(=O)/C=C/c2ccc(OCc3ccc(C(=O)NCCO[C@@H]4O[C@@H]5O[C@@]6(C)CC[C@H]7[C@H](C)CC[C@@H]([C@H]4C)[C@@]57OO6)cc3)cc2)c1 | 90
15 | C[C@H]1[C@H](OCCOc2cccc(/C=C/S(=O)(=O)Nc3c(Cl)cccc3Cl)c2)O[C@@H]2O[C@@]3(C)CC[C@H]4[C@H](C)CC[C@@H]1[C@@]24OO3 | 50
16 | C[C@H]1[C@H](OCCOc2cccc(/C=C/S(=O)(=O)Nc3ccccc3Cl)c2)O[C@@H]2O[C@@]3(C)CC[C@H]4[C@H](C)CC[C@@H]1[C@@]24OO3 | 50
17 | Cc1ccc(F)c(NS(=O)(=O)/C=C/c2cccc(OCCOC3O[C@@H]4O[C@@]5(C)CC[C@H]6[C@H](C)CC[C@@H]([C@H]3C)[C@@]46OO5)c2)c1 (stereo partly drawn) | 50

System: not listed separately
Assay: Antiproliferative activity against human MRC5 cells assessed as reduction in cell viability
Type: toxicity, cell-based
Settings: not given

Row | Structure (SMILES) | IC50 [nM]
18 | CCOC(=O)c1cc2cccc(OCc3cn(CCCO[C@@H]4O[C@@H]5O[C@@]6(C)CC[C@H]7[C@H](C)CC[C@@H]([C@H]4C)[C@@]57OO6)nn3)c2oc1=O | 430
19 | Cc1c(C)c2cccc(OCc3cn(CCCO[C@@H]4O[C@@H]5O[C@@]6(C)CC[C@H]7[C@H](C)CC[C@@H]([C@H]4C)[C@@]57OO6)nn3)c2oc1=O | 430
20 | Cc1c(C)c2cccc(OCc3cn(CCO[C@@H]4O[C@@H]5O[C@@]6(C)CC[C@H]7[C@H](C)CC[C@@H]([C@H]4C)[C@@]57OO6)nn3)c2oc1=O | 430
21 | Cc1cc(=O)oc2c(OCc3cn(CCO[C@@H]4O[C@@H]5O[C@@]6(C)CC[C@H]7[C@H](C)CC[C@@H]([C@H]4C)[C@@]57OO6)nn3)cccc12 | 430
22 | Cc1c(Cl)c(=O)oc2c(OCc3cn(CCO[C@@H]4O[C@@H]5O[C@@]6(C)CC[C@H]7[C@H](C)CC[C@@H]([C@H]4C)[C@@]57OO6)nn3)cccc12 | 430
23 | Cc1cc(=O)oc2c(OCc3cn(CCCO[C@@H]4O[C@@H]5O[C@@]6(C)CC[C@H]7[C@H](C)CC[C@@H]([C@H]4C)[C@@]57OO6)nn3)cccc12 | 430
24 | C[C@H]1[C@H](OCCn2cc(COc3cccc4c(C(F)(F)F)cc(=O)oc34)nn2)O[C@@H]2O[C@@]3(C)CC[C@H]4[C@H](C)CC[C@@H]1[C@@]24OO3 | 430

System: NCI-H460
Assay: Antiproliferative activity against human NCI-H460 cells
Type: functional, cell-based
Settings: not given

Row | Structure (SMILES) | IC50 [nM]
25 | C[C@H]1[C@H](OCCOc2cccc(/C=C/S(=O)(=O)Nc3ccc(OC(F)(F)F)cc3)c2)O[C@@H]2O[C@@]3(C)CC[C@H]4[C@H](C)CC[C@@H]1[C@@]24OO3 | 50
26 | Cc1ccc(F)c(NS(=O)(=O)/C=C/c2ccc(OCc3ccc(C(=O)NCCO[C@@H]4O[C@@H]5O[C@@]6(C)CC[C@H]7[C@H](C)CC[C@@H]([C@H]4C)[C@@]57OO6)cc3)cc2)c1 | 90
27 | C[C@H]1[C@H](OCCOc2cccc(/C=C/S(=O)(=O)Nc3c(Cl)cccc3Cl)c2)O[C@@H]2O[C@@]3(C)CC[C@H]4[C@H](C)CC[C@@H]1[C@@]24OO3 | 50
28 | C[C@H]1[C@H](OCCOc2cccc(/C=C/S(=O)(=O)Nc3ccccc3Cl)c2)O[C@@H]2O[C@@]3(C)CC[C@H]4[C@H](C)CC[C@@H]1[C@@]24OO3 | 50
29 | Cc1ccc(F)c(NS(=O)(=O)/C=C/c2cccc(OCCOC3O[C@@H]4O[C@@]5(C)CC[C@H]6[C@H](C)CC[C@@H]([C@H]3C)[C@@]46OO5)c2)c1 (stereo partly drawn) | 50

System: not listed separately
Assay: Antiproliferative activity against human U-87 MG cells
Type: functional, cell-based, U-87MG ATCC
Settings: not given

Row | Structure (SMILES) | IC50 [nM]
30 | C[C@H]1[C@H](OCCOc2cccc(/C=C/S(=O)(=O)Nc3ccc(OC(F)(F)F)cc3)c2)O[C@@H]2O[C@@]3(C)CC[C@H]4[C@H](C)CC[C@@H]1[C@@]24OO3 | 50
31 | Cc1ccc(F)c(NS(=O)(=O)/C=C/c2ccc(OCc3ccc(C(=O)NCCO[C@@H]4O[C@@H]5O[C@@]6(C)CC[C@H]7[C@H](C)CC[C@@H]([C@H]4C)[C@@]57OO6)cc3)cc2)c1 | 90
32 | C[C@H]1[C@H](OCCOc2cccc(/C=C/S(=O)(=O)Nc3c(Cl)cccc3Cl)c2)O[C@@H]2O[C@@]3(C)CC[C@H]4[C@H](C)CC[C@@H]1[C@@]24OO3 | 50
33 | C[C@H]1[C@H](OCCOc2cccc(/C=C/S(=O)(=O)Nc3ccccc3Cl)c2)O[C@@H]2O[C@@]3(C)CC[C@H]4[C@H](C)CC[C@@H]1[C@@]24OO3 | 50
34 | Cc1ccc(F)c(NS(=O)(=O)/C=C/c2cccc(OCCOC3O[C@@H]4O[C@@]5(C)CC[C@H]6[C@H](C)CC[C@@H]([C@H]3C)[C@@]46OO5)c2)c1 (stereo partly drawn) | 50

System: HCT-116
Assay: Antiproliferative activity against human HCT-116 cells assessed as reduction in cell viability
Type: functional, cell-based
Settings: Homo sapiens, HCT-116

Row | Structure (SMILES) | IC50 [nM]
35 | CCOC(=O)c1cc2cccc(OCc3cn(CCCO[C@@H]4O[C@@H]5O[C@@]6(C)CC[C@H]7[C@H](C)CC[C@@H]([C@H]4C)[C@@]57OO6)nn3)c2oc1=O | 430
36 | Cc1c(C)c2cccc(OCc3cn(CCCO[C@@H]4O[C@@H]5O[C@@]6(C)CC[C@H]7[C@H](C)CC[C@@H]([C@H]4C)[C@@]57OO6)nn3)c2oc1=O | 430
37 | Cc1c(C)c2cccc(OCc3cn(CCO[C@@H]4O[C@@H]5O[C@@]6(C)CC[C@H]7[C@H](C)CC[C@@H]([C@H]4C)[C@@]57OO6)nn3)c2oc1=O | 430
38 | Cc1cc(=O)oc2c(OCc3cn(CCO[C@@H]4O[C@@H]5O[C@@]6(C)CC[C@H]7[C@H](C)CC[C@@H]([C@H]4C)[C@@]57OO6)nn3)cccc12 | 430
39 | Cc1c(Cl)c(=O)oc2c(OCc3cn(CCO[C@@H]4O[C@@H]5O[C@@]6(C)CC[C@H]7[C@H](C)CC[C@@H]([C@H]4C)[C@@]57OO6)nn3)cccc12 | 430
40 | Cc1cc(=O)oc2c(OCc3cn(CCCO[C@@H]4O[C@@H]5O[C@@]6(C)CC[C@H]7[C@H](C)CC[C@@H]([C@H]4C)[C@@]57OO6)nn3)cccc12 | 430
41 | C[C@H]1[C@H](OCCn2cc(COc3cccc4c(C(F)(F)F)cc(=O)oc34)nn2)O[C@@H]2O[C@@]3(C)CC[C@H]4[C@H](C)CC[C@@H]1[C@@]24OO3 | 430

System: MDA-MB-231
Assay: Antiproliferative activity against human MDA-MB-231 cells assessed as reduction in cell viability
Type: functional, cell-based
Settings: not given

Row | Structure (SMILES) | IC50 [nM]
42 | CCOC(=O)c1cc2cccc(OCc3cn(CCCO[C@@H]4O[C@@H]5O[C@@]6(C)CC[C@H]7[C@H](C)CC[C@@H]([C@H]4C)[C@@]57OO6)nn3)c2oc1=O | 430
43 | Cc1c(C)c2cccc(OCc3cn(CCCO[C@@H]4O[C@@H]5O[C@@]6(C)CC[C@H]7[C@H](C)CC[C@@H]([C@H]4C)[C@@]57OO6)nn3)c2oc1=O | 430
44 | Cc1c(C)c2cccc(OCc3cn(CCO[C@@H]4O[C@@H]5O[C@@]6(C)CC[C@H]7[C@H](C)CC[C@@H]([C@H]4C)[C@@]57OO6)nn3)c2oc1=O | 430
45 | Cc1cc(=O)oc2c(OCc3cn(CCO[C@@H]4O[C@@H]5O[C@@]6(C)CC[C@H]7[C@H](C)CC[C@@H]([C@H]4C)[C@@]57OO6)nn3)cccc12 | 430
46 | Cc1c(Cl)c(=O)oc2c(OCc3cn(CCO[C@@H]4O[C@@H]5O[C@@]6(C)CC[C@H]7[C@H](C)CC[C@@H]([C@H]4C)[C@@]57OO6)nn3)cccc12 | 430
47 | Cc1cc(=O)oc2c(OCc3cn(CCCO[C@@H]4O[C@@H]5O[C@@]6(C)CC[C@H]7[C@H](C)CC[C@@H]([C@H]4C)[C@@]57OO6)nn3)cccc12 | 430
48 | C[C@H]1[C@H](OCCn2cc(COc3cccc4c(C(F)(F)F)cc(=O)oc34)nn2)O[C@@H]2O[C@@]3(C)CC[C@H]4[C@H](C)CC[C@@H]1[C@@]24OO3 | 430

System: A549
Assay: Antiproliferative activity against human A549 cells
Type: functional, cell-based
Settings: not given

Row | Structure (SMILES) | IC50 [nM]
49 | C[C@H]1[C@H](OCCOc2cccc(/C=C/S(=O)(=O)Nc3ccc(OC(F)(F)F)cc3)c2)O[C@@H]2O[C@@]3(C)CC[C@H]4[C@H](C)CC[C@@H]1[C@@]24OO3 | 50
50 | Cc1ccc(F)c(NS(=O)(=O)/C=C/c2ccc(OCc3ccc(C(=O)NCCO[C@@H]4O[C@@H]5O[C@@]6(C)CC[C@H]7[C@H](C)CC[C@@H]([C@H]4C)[C@@]57OO6)cc3)cc2)c1 | 90
51 | C[C@H]1[C@H](OCCOc2cccc(/C=C/S(=O)(=O)Nc3c(Cl)cccc3Cl)c2)O[C@@H]2O[C@@]3(C)CC[C@H]4[C@H](C)CC[C@@H]1[C@@]24OO3 | 50
52 | C[C@H]1[C@H](OCCOc2cccc(/C=C/S(=O)(=O)Nc3ccccc3Cl)c2)O[C@@H]2O[C@@]3(C)CC[C@H]4[C@H](C)CC[C@@H]1[C@@]24OO3 | 50
53 | Cc1ccc(F)c(NS(=O)(=O)/C=C/c2cccc(OCCOC3O[C@@H]4O[C@@]5(C)CC[C@H]6[C@H](C)CC[C@@H]([C@H]3C)[C@@]46OO5)c2)c1 (stereo partly drawn) | 50
